Data set [1] is described as follows: Optical properties of SCOTfluors (absorbance, emission, extinction coefficient, quantum yield, solvatochromism). The class given is physicochemical. On the procedure: All compounds were dissolved in different organic solvents, including toluene, chloroform, tetrahydrofuran, ethanol, DMSO and water (final concentrations: 10-50 μM). Fluorescence spectra were acquired on a spectrophotometer upon excitation at their maxima absorbance wavelengths.
The optical properties of SCOTfluor-80, 79, 78, 76 and 81 were compared with the properties of the original NBD.

Another data set relates to Neutrophils. The experiment in a line: Uptake of lactic acid analogue in live cells by flow cytometry (hypoxia/normoxia, lactate competition). Type of data set: cell-based, human. As to the method: (§1) B) Fluorescence emission of live cells after incubation with compound SCOTfluor-84 (100 μM) at different oxygen tensions (normoxia: blue; hypoxia: red) and in normoxic cells after competition with lactic acid (no lactate: red; 5 mM lactate: blue). Values as means and s.e.m as error bars. C) Time-lapse TIRF tracking of fluorescent particles in untreated (top) and DMOG-treated (10 μM, bottom) HeLa cells after incubation with compound SCOTfluor-84 (100 μM). Scale bars: 1 μm. D) Histograms of the diffusion coefficients of fluorescent particles in normoxic (blue) and hypoxic (red) cells. Dotted lines delineate fast and slow diffusion species. Mean diffusion coefficients (D) were determined after averaging the tracks of multiple particles for each condition (n=1,009 for untreated; n=2,906 for DMOG-treated).
Ex vivo experiments with fresh human peripheral blood from healthy donors were approved by the Accredited Medical Regional Ethics Committee (AMREC, reference number 15-HV-013). Peripheral blood polymorphonuclear cells from healthy volunteers were isolated as previously described. Briefly, citrated blood (3.8%) was centrifuged at room temperature at 350 g for 20 min, platelet-rich plasma was removed and separation from erythrocytes was achieved by Dextran sedimentation and fractionation of leukocytes using isotonic Percoll gradient. […] Flow cytometry data were analyzed using FlowJo software. […]
(In general: A flow cytometer gives signals particle by particle.)

The test system of data set [2] is HeLa cells. Kind of data set: TIRF single-particle tracking of intracellular diffusion. The conditions noted are these: DMOG-treated (10 μM) vs untreated, 100 μM. Type of data set: cell-based, human. As to the method: as §1
Imaging was performed using a home-built, bespoke single-molecule total internal reflection fluorescence (TIRF) microscope. […] Fluorescence collected by the same objective was separated from the returning TIR beam by a dichroic mirror DI02-R514 (Semrock) for 515 nm and was passed through appropriate filters [515 nm: BLP01-561R, FF01-607/36 (Semrock)]. Fluorescence was then passed through a 2.5× beam expander and recorded on an EMCCD camera (Delta Evolve 512, Photometrics) operating in frame transfer mode (EMGain=11.5 e^−/ADU and 250 ADU/photon). […]

Data set [3] has as its system HeLa cells. The experiment in a line: Cytotoxicity assay in HeLa cells. The conditions noted are these: 100 μM and 75 μM (1% DMSO), 4 h at 37° C.
Procedure: Cell viabilities were normalized to incubation in cell culture media under the same experimental conditions. A solution of 40% DMSO in cell culture media was used as a known cytotoxic positive control. Values represented as means±s.e.m. (n=3).

Each structure is given as a SMILES string.

`O=C(O)[C@H](O)CNc1ccc([N+](=O)[O-])c2n[se]nc12` [SCOTfluor-84, (R)-2-hydroxy-3-((7-nitrobenzo[c][1,2,5]selenadiazol-4-yl)amino)propanoic acid] came in with an emission in data set [1] of approximately 605 nm. The “uptake in hypoxic vs normoxic cells” value in the data set on Neutrophils (hypoxic (1% O2) vs normoxic (20% O2), 100 μM) is “Increased uptake”. Moreover, the “fluorescence staining under competition with excess lactic acid” value in the data set with Neutrophils (normoxic cells, 5 mM lactic acid) is “markedly reduced”. Also, the “mean diffusion coefficients of fluorescent particles, hypoxic vs normoxic cells” value in the data set on HeLa cells [2] was “higher mean diffusion coefficients”. For the same compound, the “cytotoxicity (cell viability)” value in the data set with HeLa cells [3] is recorded as “no significant cytotoxicity”.

These data come from US12415926B2, “Small tunable fluorophores for the detection and imaging of biomolecules” (The University Court of the University of Edinburgh, priority 2019, dated 2025).
